Experimental data from publication PMC12081870 (Communications Biology, 2025).
Several values for one entry are separate records, joined by “and”; a condition that tells them apart may be missing. Equal entries are not always repeated.

Legend:
Sla1 third SH3 domain = target: Sla1 third SH3 domain; set-up: method as in PMID 17244534; conditions: third SH3 domain of Sla1; ref [10]; read-out: binding to ubiquitin affinity; cited from earlier work
[1] = tested on: F-actin organisation in yeast cells; assay: Rhodamine-phalloidin staining, actin organisation in cells; assay type: cell-based, Saccharomyces cerevisiae; conditions: vs wild type cells
Procedure: (§1) Supplementary Information.
(§2) Methods used in Supplementary Data
(§3) Yeast strains, growth and staining
(§4) Yeast plasmids used in this study are listed in Supplementary table 1 and yeast strains used in Supplementary table 2. Unless stated otherwise, cells were grown with rotary shaking at 30°C in liquid YPD medium (1% yeast extract, 2% Bacto-peptone, 2% glucose supplemented with 40 μg/ml adenine) or in synthetic medium (0.67% yeast nitrogen base, 2% glucose) with appropriate supplements. Growth assays used solid medium with 2% agar added to above. All strains carrying fluorescent tags have growth properties similar to isogenic control strains with the exception of strains carrying dual reporters where lifetimes were longer for both wild type and mutant strains (in Figure 9D). Point mutations in LAS17 were generated using site directed mutagenesis (Agilent). DNA cassettes carrying mutations for integration were transformed into KAY1801. Mutant colonies were counter-selected on minimal medium, containing 0.005% uracil and 0.1% 5’-Fluoroorotic Acid (5-FOA; Melford labs). […]
(§5) expressing strains on plates on which a disc carrying 10 µl of latrunculin-A of varying concentrations was placed (white disc). […] They were then scored according to the extent of uptake and categorised according to the key shown. >100 cells were visualised for each strain in each of 3 independent experiments. […]

yeast cells = assay: Lucifer yellow bulk phase endocytosis; assay type: cell-based, Saccharomyces cerevisiae; conditions: 90 minutes at 30°C, vs wild type
Procedure: as §1, §2, §3, §4, §5

[2] = tested on: Las17-GFP and Arc15-mCherry; assay: Dual-reporter lifetimes, Las17-GFP and Arc15-mCherry co-localisation; assay type: cell-based, Saccharomyces cerevisiae; set-up: lifetime, GFP alone / lifetime, GFP and RFP / lifetime, RFP: unit not given here
Procedure: A size bar for each set of kymographs is shown on the upper right of each set. For (A) and (C) size bar is 100 nm and for B is 200 nm. Error bars are standard deviation. […] The site of interest is labelled in the first two time panels with a white arrow. Exposure 0.5 sec with 1 second time lapse. 120 s recorded. […] Error bars are standard deviation.
Individual spots were analysed for lifetimes and behaviours.
Yeast strains used in this study are listed in Supplementary table 2 and plasmids used in Supplementary table 1. Unless stated otherwise, cells were grown with rotary shaking at 30 °C in liquid YPD medium (1% yeast extract, 2% Bacto-peptone, 2% glucose supplemented with 40 μg/ml adenine) or in synthetic medium (0.67% yeast nitrogen base, 2% glucose) with appropriate supplements. […] DNA cassettes carrying mutations for integration were transformed into KAY1801. Mutant colonies were counter-selected on minimal medium, containing 0.005% uracil and 0.1% 5’-Fluoroorotic Acid (5-FOA; Melford laboratories). Allele exchange, in growing Ura3^-, 5-FOA resistant colonies, was confirmed by PCR and sequencing.
For live-cell imaging, cells expressing tagged proteins were visualised after growing to early log phase. Analysis was carried out at room temperature (22 °C). […] Images were taken simultaneously on separate scientific complementary metal oxide semiconductor (sCMOS) cameras (30 msec exposure). Seven 250 nm sections were acquired every 0.5 sec (241 time points). The stacks were then deconvolved and processed, using SoftWorx. Protein localisation and lifetime was analysed from those projections. Fiji software was used to assemble movies and kymographs, to track and record behaviour of individual spots. Graphs show mean ± SD. […] Where appropriate data was tested for normal distribution using Graphpad Prism software, and then subjected to the appropriate test as described in the methods for each experiment type.

Abp1 = assay: Lifetime of Abp1-GFP patches at endocytic sites; assay type: cell-based, Saccharomyces cerevisiae; conditions: las17 P387A background vs wild type; wt n = 183, P387A n = 96
Procedure: (§6) For live-cell imaging, cells expressing tagged proteins were visualised after growing to early log phase. Analysis was carried out at room temperature (22 °C). Time-lapse of wild-type and mutated Las17-GFP was acquired using OMX DeltaVision V4 and a 60×/1.42 NA objective. Images were taken simultaneously on separate scientific complementary metal oxide semiconductor (sCMOS) cameras (30 msec exposure). Seven 250 nm sections were acquired every 0.5 sec (241 time points). The stacks were then deconvolved and processed, using SoftWorx. Protein localisation and lifetime was analysed from those projections. Fiji software was used to assemble movies and kymographs, to track and record behaviour of individual spots. Graphs show mean ± SD. Sample size Fig. 9A wt n = 67, P387A n = 52; 9B wt n = 183, P387A n = 96; 9 C wt n = 156, P387A n = 132. Where appropriate data was tested for normal distribution using Graphpad Prism software, and then subjected to the appropriate test as described in the methods for each experiment type.
(§7) Lifetime and behaviour of cell reporter proteins using fluorescence microscopy: Graphs show mean ± SD. Sample size Fig. 9A wt n = 67, P387A n = 52; 9B wt n = 183, P387A n = 96; 9 C wt n = 156, P387A n = 132. Unpaired Mann Whitney statistical analysis of patch lifetimes was carried out using Graphpad Prism software, **** denotes two tailed P value of <0.0001.

[3] = tested on: Las17 and las17 P387A expressing yeast strains; assay: Latrunculin-A halo assay on yeast; assay type: cell-based, Saccharomyces cerevisiae; conditions: sole Las17 in cells, words
Procedure: as §1, §2, §3, §4, §5

las17 P387A yeast strain = assay: Growth of yeast, temperature sensitivity; assay type: cell-based, Saccharomyces cerevisiae; conditions: range of temperatures, sole Las17 in cells
Procedure: as §1, §2, §3, §4, §5

[4] = tested on: Arc15-mCherry (Arp2/3 complex); assay: Lifetime of Arc15-mCherry patches at endocytic sites; assay type: cell-based, Saccharomyces cerevisiae; conditions: las17 P387A background vs wild type; wt n = 156, P387A n = 132
Procedure: as §6, §7

[5] = Las17-GFP / Arc15-mCherry dual-label strain
[6] = sheet Fig9E, individual endocytic patches, one per cell

| Substance | Kd (Sla1 third SH3 domain) | actin organisation in cells [1] | bulk phase endocytosis (yeast cells) | duration of co-localization of Las17-GFP and Arc15-mCherry [2, 5] | time of Arc15-mCherry alone after Las17 disassembly [2, 5] | time of Las17 at the site before Arc15 is recruited [2, 5] | lifetime, GFP alone [2, 6] | lifetime, GFP and RFP [2, 6] | lifetime, RFP [2, 6] | lifetime of Abp1 patches (Abp1) | sensitivity to latrunculin-A [3] | growth (las17 P387A yeast strain) | lifetime of Arc15 patches [4] |
| --- | --- | --- | --- | --- | --- | --- | --- | --- | --- | --- | --- | --- | --- |
| ubiquitin | 39 µM |  |  |  |  |  |  |  |  |  |  |  |  |
| las17 P387A: full-length Las17 with P387A, integrated in yeast in place of wild type LAS17 |  | less well polarised | slower than in wild type cells | 28 s | 15 s | about 40 s | 30 and 22 and 44 and 66 | 46 and 78 and 88 | 62 and 92 and 108 | increased lifetime | increase in sensitivity to latrunculin-A | able to support growth across a range of temperatures | increased lifetime |
